From patent US20200087340A1, “LIF/LIFR ANTAGONIST IN ONCOLOGY AND NONMALIGNANT DISEASES” (Evestra, Inc., priority 2018, published 2020)

How the values were obtained:
[1] = tested on: HL-60(TB); test: NCI-60 screening, Leukemia; format: cell-based, human
[2] = tested on: A549/ATCC; test: NCI-60 screening, Non-Small Cell Lung Cancer; format: cell-based, human
[3] = tested on: EKVX; test: NCI-60 screening, Non-Small Cell Lung Cancer; format: cell-based, human
[4] = tested on: NCI-H226; test: NCI-60 screening, Non-Small Cell Lung Cancer; format: cell-based, human
[5] = tested on: NCI-H23; test: NCI-60 screening, Non-Small Cell Lung Cancer; format: cell-based, human
[6] = tested on: SF-268; test: NCI-60 screening, CNS Cancer; format: cell-based, human
[7] = tested on: LOX IMVI; test: NCI-60 screening, Melanoma; format: cell-based, human
[8] = tested on: UACC-257; test: NCI-60 screening, Melanoma; format: cell-based, human
[9] = tested on: CAKI-1; test: NCI-60 screening, Renal Cancer; format: cell-based, human
[10] = tested on: various cancer cells lines; test: Cytotoxicity assays in various cancer cell lines; format: cell-based
[11] = tested on: human endometrial stromal cells (HESC); test: Decidualization assay, phalloidin staining of actin cytoskeleton; format: cell-based
Procedure: Decidualization studies: The above compounds were investigated originally for the treatment of endometriosis. The compounds were tested in a decidualization assay using human endometrial stromal fibroblast (HESC) cells. In preparation for the possibility of embryonic attachment, the stromal cells in the endometrium undergo extensive waves of proliferation, remodeling, and terminal differentiation that transforms the endometrium into an endocrine gland, called decidua. This transformation is called decidualization and it is under the control by ovarian hormones.
The level of apoptosis increases from the proliferative phase through menstrual cycle and peaks at menses. […] However if the cells are subjected to conditions that induce decidualization, stromal cells will begin to differentiate instead of undergoing apoptosis.
Rationale of this assay is described above in mechanism of action studies section. Briefly, human stromal endometrial cells were plated in the presence and absence of progesterone and allow undergoing decidualization. The cells treated with test compounds of different concentrations and stained for actin cytocketal morphology using phalloidin staining and monitored under fluorescent microscope.

[12] = tested on: MDA-MB-231 (TNBC) Xenograft; test: Tumor xenograft study, MDA-MB-231; format: in vivo, mice
Procedure: Uniform suspensions of human breast cancer MDA-MB-231 and human ovarian cancer IGROV1 cells (2×10^6) in 100 μL (0.02 carboxymethyl cellulose in phosphate buffered saline) were injected subcutaneously into the right and left flanks of 4- to 5-week-old female athymic nude mice (Charles River Laboratories). After 10 days, when the tumor […] reaches 100 mm^3, the mice were randomly allocated to 3 groups of each containing 6 animals. […] All drug was suspended in PBS followed by sonication (15 seconds with an intermittent interval of 5 seconds) for 1 minute. Tumors were allowed to reach palpability before drug intervention. Tumor size was measured every 3 days using digital Vernier Calipers and tumor volume was calculated using the ellipsoid formula [D×(d2)]/2, where D is the large diameter of the tumor and d represents the small diameter. On day 31, the mice were euthanized and tumors were harvested for protein and gene expression studies. […] FIG. 6B depicts a graph of tumor volume vs. time for the administration of EC300 at 2.5 mg/kg twice weekly in the MDA-MB-231 (TNBC) Xenograft. […] FIG. 7 depicts a graph of tumor volume vs. time for the administration of EC300 at 5 mg/kg 5 days per week in the IGROV1 (Ovarian) Xenograft. […] STAT3 phosphorylation is reduced in tumors that underwent treatment compared to control which is an indication of LIF downstream target.

[13] = tested on: MCF-7 cells; test: P53 / MDM2 levels in MCF-7 cells; format: cell-based, human

## C#CC(F)(F)[C@]1(O)CCC2C3CCC4=CC(=O)CCC4=C3C(c3ccc(C4CC4)cc3)C[C@@]21C (stereo partly drawn) [EC330, 17α-(1,1-difluoro-2-propyn-1-yl)-17β-hydroxy-11β-[4-p-(cyclopropyl)phenyl]estra-4,9-dien-3-one]
[1]
  TGI (log10TGI): <−8.00
[2]
  TGI (log10TGI): −4.61
[3]
  TGI (log10TGI): <−8.00
[4]
  TGI (log10TGI): −5.04
[5]
  TGI (log10TGI): <−8.00
[6]
  TGI (log10TGI): −6.43
[7]
  TGI (log10TGI): <−8.00
[8]
  TGI (log10TGI): >−4.00
[9]
  TGI (log10TGI): −6.41
[10]
  cytotoxicity (IC50's) in cytotoxicity assays: low nanomolar
[11]
  actin cytoskeletal disruption (phalloidin staining): cytoskeletal disruption
[12]; MDA-MB-231 breast cancer xenograft tumors
  apoptosis in xenograft tumors: induced apoptosis dose dependently
[12]; human triple negative breast cancer (TNBC) model
  tumor growth: significantly reduced
[13]
  P53 levels / MDM2: restore P53 levels by inhibiting MDM2
